Consider one substance from patent publication US20160279204A1, “PEPTIDES AND PHARMACEUTICAL COMPOSITIONS FOR USE IN THE TREATMENT BY NASAL ADMINISTRATION OF PATIENTS SUFFERING FROM ANXIETY AND SLEEP DISORDERS” (MAX-PLANCK-GESELLSCHAFT ZUR FÖRDERUNG DER WISSENSCHAFT E.V., priority 2011, published 2016).

Entries after “also recorded” stand apart in the source; their conditions may differ.

For assay [1], the system named is CA3-CA1 synapses of the VH. Kind of assay: Field potential recordings, bath application of NPS to VH slices. Further details: species or system mouse. The following applies: bath application of NPS 1 μM, VH slices from C57BL/6N mice. On the procedure:
Brains were dissected and placed in ice-cold carbogenated ACSF. 350 μm horizontal slices containing the VH were prepared using a vibroslicer. Afterwards, the slices were incubated for 30 min at 34° C. and subsequently stored at room temperature. For experiments, slices were placed in a submerged recording chamber and continuously superfused with carbogenated ACSF at a flow rate of 3 mL/min. Square pulse electrical stimuli (50 μs pulse width) were delivered via a bipolar tungsten electrode (insulated to the tip, 50 μm pole diameter) that was positioned within the stratum radiatum of the CA1 region. All recordings were performed at room temperature, low-pass filtered at 1 kHz, and digitised at 5 kHz. Evoked field excitatory postsynaptic potentials (fEPSPs) were recorded using glass micro-electrodes (1 MΩ open-tip resistance), filled with ACSF and also positioned within the CA1 stratum radiatum. Stimulus intensities were adjusted in a manner to produce a fEPSP of ˜50% of that amplitude at which a population spike becomes clearly observable. Paired-pulse facilitation was measured at interstimulus intervals of 25, 50, 100, 200, and 400 ms and the paired-pulse ratio was calculated as fEPSP2 amplitude/fEPSP1 amplitude.

Assay [2] deals with Cy3-NPS uptake in mouse brain. Nature of the assay: Cy3-NPS uptake after ICV pre-injection of native NPS. The assay is classed as in vivo. The following applies: native NPS at 5 fold concentration, 10 min prior to ICV Cy3-NPS (0.2 nmol per mouse). The procedure: The mice were sacrificed 30 min post-injection.
To clarify the mechanism of intracellular Cy3-NPS uptake, native, i.e. unlabeled, NPS at 5 fold concentration was injected unilaterally 10 min prior to ICV injection of Cy3-NPS (0.2 nmol per mouse). […] This points towards a receptor-mediated uptake mechanism, since, as shown for other neuropeptides (cf. Grady et al., 1996; Hubbard et al., 2009) pre-treatment with unlabeled agonists leads to receptor saturation, thereby antagonising the uptake of labelled agonist (here Cy3-NPS).

The subject of assay [3] is evoked neuronal activity flow from the dentate gyrus to area CA1. Nature of the assay: Voltage-sensitive dye imaging (VSDI) in VH slices. Further details: species or system mouse. The following applies: bath application of NPS 1 μM. The procedure: According to Maggio and Segal (2007) and Fanselow and Dong (2010), VSDI experiments were conducted in the VH. Horizontal brain slices (350 μm-thick) were prepared as described in Refojo et al., 2011 and/or von Wolff et al., 2011). Only the first two slices from the ventral surface of the brain in which the CA1 region was clearly visible were used for the measurements. Staining of slices with the voltage-sensitive dye Di-4-ANEPPS and VSDI were carried out at room temperature (23-25° C.). For staining, slices were kept for 15 min in carbogenated (95% O2/5% CO2) ACSF containing Di-4-ANEPPS (7.5 μg/mL; <0.1% DMSO). The ACSF (pH 7.4) consisted of (in mM): 125 NaCl, 2.5 KCl, 25 NaHCO3, 1.25 NaH2PO4, 2 CaCl2, 1 MgCl2, and 25 glucose. Afterwards, slices were stored for at least 30 min in pure carbogenated ACSF. In the recording chamber, slices were continuously superfused with carbogenated ACSF (3 mL/min flow rate). VSDI and data analysis were performed using the MiCAM02 hard- and software package (BrainVision, Tokyo, Japan). The tandem-lens fluorescence microscope was equipped with the MiCAM02-HR camera and the 2× and 1× lens at the objective and condensing side, respectively. Acquisition settings were: 88×60 pixels frame size, 36.4×40.0 μm pixel size, and 2.2 ms sampling time. To reduce noise, four acquisitions subsequently recorded at intervals of 5 s were averaged. Neuronal activity was evoked by square pulse electrical stimuli (200 μs, 15-20 V) delivered to the dentate gyrus granule cell layer via a custom-made monopolar tungsten electrode (Teflon-insulated to the tip of 75 μm diameter). From recorded signals, the fractional change in fluorescence (ΔF/F) was calculated. For all quantifications, ΔF/F values were spatially and temporally smoothed using a 3×3×3 average filter. VSDI signals presented in images were smoothed with a 5×5×3 average filter. Pixelation of images was reduced by the interpolation function of the MiCAM02 software. […]

The test system of a further assay is C57BL/6N mice. Nature of the assay: Dark-light test after bilateral NPS injection into CA1 of the VH. It counts as in vivo, mouse. The following applies: 0.1 nmol NPS each side into CA1 of VH, 30 min. On the procedure: Animals were fixed in a stereotactic frame and maintained under isoflurane anesthesia (Forene® 100%, V/V; induction: 2.5%; maintenance: 1.5%; in O2; flow rate: 1 L/min). The mice received acute analgesic treatment with Metacam s.c. during surgery (0.5 mg/kg; in NaCl). 23 gauge stainless-steel guide cannulas were implanted in the CA1 region of the VH at the following coordinates: 3.1 mm posterior, ±3 mm lateral from bregma, and 2 mm ventral from the skull surface (Franklin and Paxinos, 2007). The guide cannulas were fixed with two screws and a two-component adhesive. For behavioural experiments, animals were implanted bilaterally for later bilateral injection, whereas for Cy3-NPS injections, implantation was performed unilaterally. The animals were allowed to recover for at least 6 days before starting the behavioural experiments. Substance infusions were carried out manually, on mice anesthetised by brief inhalation of isoflurane, using a 30 gauge injection cannula connected to a Tygon tube and a 10 μL Hamilton syringe. […]
Mice were injected bilaterally either with 0.1 nmol NPS in 0.5 μL ACSF for each side or with 0.5 μL of ACSF for each side. […] Animal behaviour was videotaped and relevant parameters were analysed using the tracking software ANY-maze version 4.30 (Stoelting, Wood Dale, Ill., USA). […]

As for “neuropeptide S (SFRNGVGSGVKKTSFRRAKQ; Neuropeptide S; UniProt P0C0P7 70-89, looked up) [NPS, peptide agonist of neuropeptide S receptor (NPSR); native NPS, rat, from Bachem]”, in assay [1], the “long-term potentiation (LTP)” value is on record as “decreases” and the paired-pulse facilitation result was “decreases”. Also, in assay [2], the “effect of pre-injection on Cy3-NPS uptake” value is “reduced Cy3-NPS uptake throughout the brain”. Moreover, in assay [3], the “activity flow from the dentate gyrus to the CA1 subfield” value is on record as “rapidly weakened”. In assay [3] (dentate hilus, CA3 region, area CA1), the FDS peak amplitudes entry was “reduced the amplitude of FDSs in the dentate hilus, the CA3 region, and area CA1; also recorded: decreased FDS peak amplitudes”. Moreover, the “anxiety- and locomotion-related behaviour in the dark-light test” value in the assay with C57BL/6N mice was “did not affect locomotion; also recorded: not altered”.
